Laboratory results published in patent publication US6228841A, “Peptide derivatives” (Daiichi Pharmaceutical Co., Ltd., priority 1995, dated 2001).
Like-named read-outs stand apart in the source and are kept apart here.

System: mice
Experiment: analgesic activity by pressure stimulation method (base of tail)
Type: in vivo
Conditions: Mus musculus, read-out: ED50 (dose providing 50% of % of MPE, analgesic activity)
Protocol: The analgesic activities of peptide derivatives of the present invention were evaluated by pressure stimulation method as follows. Mice were subjected to pressure stimulation at the bases of their tails at a rate of 10 mmHg/second. […] For the experiments, mice that were preliminary determined to respond to a pressure of 40-50 mmHg were used. The maximum stimulating pressure was 100 mmHg. Analgesic activity was calculated as percent of maximum possible effect (% of MPE) according to the following equation: [formula]
wherein Po is the pain reaction threshold before the administration of a drug; Pt is the pain reaction threshold "t" minutes after the administration of the drug; and Pc is the maximum stimulating pressure. According to a dose-response curve, ED50 value was determined as a dose of drug providing 50% of % of MEP and used for comparison of analgesic activity of drugs.

## CN1CC[C@]23c4c5ccc(O)c4O[C@H]2[C@@H](O)C=C[C@H]3[C@H]1C5 [morphine]
Oral administration
  ED50: 29.6 mg/kg
sc, subcutaneous administration (skin in the backs)
  ED50: 4.6 mg/kg
